Results on five compounds are retold here after US20070202134A1, “Muc1 Antagonist Enhancement of Death Receptor Ligand-Induced Apoptosis” (priority 2004, published 2007).

What all share (format): cell-based, Human
The subject of test [1] is HCT116/vector cells. The test is described as follows: Cell death after CDDP treatment, HCT116/vector cells. To be noted: CDDP for 72 h. How it is done:
(§1) Cell culture. Human HCT116 colon carcinoma cells (ATCC, Manassas, Va.) were cultured in Dulbecco's modified Eagle's medium/F12 with 10% heat-inactivated fetal bovine serum, 100 units/ml penicillin, […] streptomycin and 2 mM L-glutamine. Cells were treated with EGF (10 ng/ml; Calbiochem-Novabiochem, San Diego, Calif.), HRG (20 ng/ml; Calbiochem-Novabiochem), cisplatin (CDDP; Sigma), etoposide (Sigma), rhTNF-a (Promega, Madison, Wis.), CHX (Sigma) or rhTRAIL (100 ng/ml; Calbiochem-Novabiochem).
(§2) Methods. Experimental procedures and methods were as described in Example 1.

Another test has as its system cytochrome c. The experiment in a line: Release of mitochondrial cytochrome c to the cytosol (immunoblot), HCT116/vector cells. Particulars: HCT116/vector cells treated with CDDP. The method, then: as §1
(§3) Immunoblot analysis. Lysates were prepared from subconfluent cells as described (Li et al., 2001a). Equal amounts of protein were separated by SDS-PAGE and transferred to nitrocellulose membranes. […] The immunocomplexes were detected with horseradish peroxidase-conjugated secondary antibodies and enhanced chemiluminescence (ECL, Amersham Biosciences, Piscataway, N.J.). Intensity of the signals was determined by densitometric scanning. […]
On the technique in general: A western blot detects proteins with antibodies after separation by electrophoresis.

Test [2] relates to HCT116/vector cells. The test is described as follows: Apoptosis by analysis of sub-G1 DNA, HCT116/vector cells. The method, then:
Methods. Apoptotic cells were quantified by analysis of sub-G1 DNA and TUNEL staining. To assess sub-G1 DNA content, cells were harvested, washed with PBS, fixed with 80% ethanol, and incubated in PBS containing 20 ng/ml RNase (Roche) for 60 min at 37° C. Cells were then stained with […] propidium iodide (Sigma) for 30 min at room temperature in the dark. DNA content was analyzed by flow cytometry (EPICS XL-MCL, Coulter Corp.). Apoptotic cells with DNA fragmentation were detected by staining with the In Situ cell death detection kit (TUNEL; Roche Applied Science) and visualized by confocal microscopy (ZEISS LSM510). After staining, cells were analyzed by flow cytometry. Other experimental procedures and methods were as described in Example 1.

The next test concerns HCT116/MUC1 cells. The experiment in a line: Cell death after CDDP treatment, HCT116/MUC1 cells. Particulars: CDDP for 72 h, cessation of cell growth. How it is done:
as §1, §2

A further test relates to HCT116/MUC1(Y46F) cells. The experiment in a line: Cell death after CDDP treatment, HCT116/MUC1(Y46F) cells. Particulars: CDDP for 72 h. How it is done: as §1, §2
The test system of test [3] is MUC1 C-ter. The experiment in a line: Expression of MUC1 C-ter after CHX. Particulars: CHX treatment. The method, then:
Immunoblot analysis. Lysates were prepared from subconfluent cells as described (Li et al., 2001a). Equal amounts of protein were separated by SDS-PAGE and transferred to nitrocellulose membranes. […] The immunocomplexes were detected with horseradish peroxidase-conjugated secondary antibodies and enhanced chemiluminescence (ECL, Amersham Biosciences, Piscataway, N.J.). Intensity of the signals was determined by densitometric scanning.
Methods. Apoptotic cells were quantified by analysis of sub-G1 DNA and TUNEL staining. […] DNA content was analyzed by flow cytometry (EPICS XL-MCL, Coulter Corp.). Apoptotic cells with DNA fragmentation were detected by staining with the In Situ cell death detection kit (TUNEL; Roche Applied Science) and visualized by confocal microscopy (ZEISS LSM510). After staining, cells were analyzed by flow cytometry. […]

The subject of test [4] is MUC1 C-ter. The experiment in a line: Mitochondrial localization of MUC1 C-ter in HCT116/MUC1 cells (immunoblot of mitochondrial fractions). The method, then: as §1, §3
A further test concerns MUC1(Y46F) C-ter. The experiment in a line: Mitochondrial localization of MUC1(Y46F) C-ter in HCT116/MUC1(Y46F) cells (immunoblot of mitochondrial fractions). How it is done: as §1, §3

For `[NH2][Pt]([NH2])([Cl])[Cl]` [CDDP, cisplatin], the results for the cell death in the test with HCT116/vector cells [1], in the test with HCT116/MUC1 cells and in the test on HCT116/MUC1(Y46F) cells were above 90%, below 30% and above 90%, respectively. Besides, the “levels of cytosolic cytochrome c” value in the test with cytochrome c is recorded as “increased levels of cytosolic cytochrome c”. The “apoptosis (sub-G1 DNA)” value in the test with HCT116/vector cells [2] (100 μM CDDP for 24 h) is listed as “approximately 40%”.
In the case of `C[C@@H]1C[C@@H]([C@H](O)CC2CC(=O)NC(=O)C2)C(=O)[C@@H](C)C1` [CHX, cycloheximide], the “effect on expression of MUC1 C-ter” value with MUC1 C-ter [3] is recorded as “no apparent effect”.
Turning to “EGF: EGF (10 ng/ml; Calbiochem-Novabiochem) (NSDSECPLSHDGYCLHDGVCMYIEALDKYACNCVVGYIGERCQYRDLKWWELR; Epidermal growth factor; UniProt P01133 971-1023, looked up)”, the “effect on mitochondrial targeting of MUC1 C-ter” value with MUC1 C-ter [4] (EGF 10 ng/ml) and in the test with MUC1(Y46F) C-ter (EGF 10 ng/ml) was “little effect” throughout.
TNF-α: the induction of apoptosis result is on record as “associated with induction of HCT116/vector cell apoptosis” in the test with HCT116/vector cells [2] (20 ng/ml TNF-α in the presence of 10 ng/ml cycloheximide (CHX), 12 hr) and “failed to induce apoptosis” with HCT116/vector cells [2] (TNF-α alone).
For heregulin [HRG], the “increase in localization of MUC1 C-ter to mitochondria” value in the test with MUC1 C-ter [4] (HRG 20 ng/ml, 0.5 h, persisted through 3 h) is listed as 2.3 fold. Also, the “effect on mitochondrial localization of MUC1(Y46F) C-ter” value with MUC1(Y46F) C-ter (HRG 20 ng/ml) is reported as “little effect”.
